Results taken from US9789096B2, “Methods and compositions for selective and targeted cancer therapy” (Board of Regents of the University of Texas System, priority 2013, dated 2017).
Like-named read-outs stand apart in the source and are kept apart here.

What was measured:
Format in all cases: cell-based, human
HCC44 = assay: Cell viability dose-response, HCC44; conditions: Homo sapiens; for AC50: HCC44, Table 8, 12-point dose-response starting at 50 micromolar
Description: (§1) FIG. 6A. […] Cell viability is plotted vs. compound concentration. Compound was added to cells plated at 15% confluence in 96-well plates in RPMI-1640 media supplemented with 5% Fetal Bovine Serum and 2 mM L-Glutamine. After 4 days of incubation, ATP levels were measured using Cell Titer Glo (Promega). Data are presented as the average of 2 replicates ±SEM.
(§2) Selectivity may be measured by the half maximal inhibitory concentration (IC50), which, as used herein, is a measure of the effectiveness of a compound in killing cells. This quantitative measure indicates how much of a particular compound is needed to kill a particular cell population by half (e.g., as indicated by the amount of ATP). […] The IC50 can be determined by constructing a dose-response curve. The lower the IC50, the higher the potency, and the greater the difference between IC50 values for different cell lines (e.g., sensitive lines vs. insensitive lines, and sensitive lines vs. normal lines) the greater the selectivity. […]
(§3) With this information, we synthesized and tested a series of small molecules derived in conception from the oxalamide and chromone scaffold including N-acyl ureas, as shown in Tables 6-8. Each compound was tested in a 12-point dose-response study starting at 50 micromolar and decreasing in 3-fold increments to sub-nanomolar concentrations, in duplicate. Additionally, one or more additional cell line was tested in the same way.

H2009 = assay: Cell viability dose-response, H2009; conditions: Homo sapiens; for IC50: NCI-H2009; for AC50: NCI-H2009, Table 8
Description: as §1, §2, §3

H2122 = assay: Cell viability dose-response, H2122; conditions: Homo sapiens; for AC50: NCI-H2122, Table 8, 12-point dose-response starting at 50 micromolar
Description: as §1, §2, §3

H1819 = assay: Cell viability dose-response, H1819; conditions: Homo sapiens, NCI-H1819, Tables 3 and 4; read-out: IC50 (uM) vs indicated non-small cell lung cancer cell line H1819
Description: as §1, §2, §3

[1] = HCC44, 12-point dose-response starting at 50 micromolar, 3-fold increments, in duplicate, read-out: toxicity data, HCC44
[2] = 12-point dose-response starting at 50 micromolar, 3-fold increments, in duplicate, read-out: toxicity data, H2009
[3] = NCI-H2122, 12-point dose-response starting at 50 micromolar, 3-fold increments, in duplicate, read-out: toxicity data, H2122
[4] = NCI-H2122, Table 9, competitor, read-out: IC50 to H2122 cells
[5] = 12-point dose-response starting at 50 micromolar
[6] = HCC44, Tables 3 and 4, read-out: IC50 (uM) vs indicated non-small cell lung cancer cell line HCC44
[7] = Tables 3 and 4, read-out: IC50 (uM) vs indicated non-small cell lung cancer cell line H2009
[8] = NCI-H2122, Tables 3 and 4, read-out: IC50 (uM) vs indicated non-small cell lung cancer cell line H2122

SMILES	IC50 (HCC44; [1]) [µM]	IC50 (H2009; [2]) [µM]	IC50 (H2122; [3]) [µM]	AC50 (HCC44) [µM]	AC50 (H2122) [nM]	other results
COc1ccc(CCNC(=O)NC(=O)c2ccc(C(=O)c3ccc(OC)cc3)cc2)cc1 [SW208220-1-A]	≥ 49.5	≥ 49.5	≥ 49.5			IC50 (H2122; [4]): 0.8 µM
COc1ccc(CCNC(=O)NC(=O)c2ccc(Oc3ccccc3)cc2)cc1 [SW208456-1-A]	0.022	≥ 49.5	0.031			
O=c1c(Oc2cccc(Cl)c2)coc2cc(OCc3cnn(-c4ccccc4)c3)ccc12 [SW 208594-1]				0.08	220	AC50 (H2009; [5]): 16.5 µM
O=c1c(-c2ccc3ccccc3c2)coc2cc(OCc3cnn(-c4ccccc4)c3)ccc12 [SW208761-1]				49.5	≥ 49500	AC50 (H2009; [5]): 32.4 µM
COc1ccc(CCNC(=O)NC(=O)c2ccc(C(=O)Nc3ccccc3)cc2)cc1 [SW208398-1-A]	≥ 49.5	16.5	0.36			
COc1ccc(CCNC(=O)NC(=O)c2ccc(C(=O)N3CCCCC3)cc2)cc1 [SW208397-1-A]	≥ 49.5	16.5	2.28			
COc1ccc(CCNC(=O)NC(=O)c2ccc(OC)cc2)cc1 [SW208402-1-A]	≥ 49.5	≥ 49.5	1.03			
COc1ccc(CCNC(=O)NC(=O)c2ccc(C(=O)N(C)C)cc2)cc1 [SW208455-1-A]	≥ 49.5	16.5	≥ 49.5			IC50 (H2122; [4]): 0.8 µM
Cn1ccc(=O)c2ccc(OCc3cnn(-c4ccccc4)c3)cc21 [SW208832-1]				49.5	7560	AC50 (H2009; [5]): 7.51 µM
O=c1c(C2=CCCCC2)coc2cc(OCc3cnn(-c4ccccc4)c3)ccc12 [SW208764-1]				49.5	≥ 49500	AC50 (H2009; [5]): 49.5 µM
O=c1c(-c2ccccn2)coc2cc(OCc3cnn(-c4ccccc4)c3)ccc12 [SW208732]				49.5	≥ 49500	
COc1ccc(CCNC(=O)NC(=O)c2cccc(OC)c2)cc1 [SW208403-1-A]	≥ 49.5	42.7	1.09			
O=c1c(-c2cccc(F)c2)coc2cc(OCc3cnn(-c4ccccc4)c3)ccc12 [SW208735]				49.5	550	
COc1ccc(CCNC(=O)NC(=O)c2cccc(Br)c2)cc1 [SW208389-1-A]	≥ 49.5	35.6	≥ 49.5			
COc1ccc(CCCNC(=O)c2ccc(Cl)cc2)cc1 [SW208462-1-A]	≥ 49.5	≥ 49.5	≥ 49.5			
O=C(NCCc1ccc(O)cc1)NC(=O)c1ccc(OCc2ccccc2)cc1 [SW208524-1-A]	0.01	0.01	0.02			
O=C(Nc1ncc(-c2ccccc2)s1)c1ccc(C(=O)c2ccccc2)cc1 [SW209017]						IC50 (HCC44; [6]): 49.5 µM; IC50 (H2009; [7]): 4.95 µM; IC50 (H2122; [8]): 5.76 µM
COc1ccc(CCN(C)C(=O)NC(=O)c2ccc(C(=O)c3ccccc3)cc2)cc1 [SW208461-1-A]	≥ 49.5	≥ 49.5	8.67			
O=c1c(Oc2ccccc2Cl)coc2cc(OCc3cnn(-c4ccccc4)c3)ccc12 [SW 208589-1]				49.5	120	AC50 (H2009; [5]): 4.76 µM
O=C(Nc1nc2c(s1)CCCC2)c1ccc(C(=O)c2ccccc2)cc1 [SW208741-1]						IC50 (HCC44; [6]): 3.64 µM; IC50 (H2122; [8]): 0.22 µM
O=c1c(-c2ccc(F)cc2)coc2cc(OCc3cnn(-c4ccccc4)c3)ccc12 [SW208737]				49.5	270	
O=C(Nc1nc2ccc(O)cc2s1)c1ccc(C(=O)c2ccccc2)cc1 [SW202864-1]						IC50 (HCC44; [6]): 38.6 µM; IC50 (H2122; [4]): 0.256 µM; IC50 (H2122; [8]): 30.8 µM
COc1cccc(-c2coc3cc(OCc4cnn(-c5ccccc5)c4)ccc3c2=O)c1 [SW208733]				49.5	740	
O=c1c(-c2ccccc2F)coc2cc(OCc3cnn(-c4ccccc4)c3)ccc12 [SW208734]				49.5	≥ 49500	
Nc1nc2cc([N+](=O)[O-])ccc2s1 [SW053525]						IC50 (H2009; [7]): 1530 µM; IC50 (H1819): 182 µM
